Results from US10065970B2 (Genentech, Inc., priority 2015, dated 2018).

Biological target: PI3Kα (alpha) (Homo sapiens (Human), UniProt P42336)
Test: p110α (alpha) PI3K Binding Assay (ADP-Glo lipid kinase reaction)
Format: biochemical
Settings: PI3K alpha 0.2 nM, ATP 40 μM, PIP2:3PS 50 μM, 120 min, room temperature; Ki by Morrison Equation; read-out: PI3Kα-(alpha) ATP (Ki) micromolar
Protocol: The ability of a compound of the invention to act as an inhibitor of PI3Kα was determined using the methods of Example 901.
PI3K Binding assays are intended for determining the biochemical potency of small molecule PI3K inhibitors. The PI3K lipid kinase reaction is performed in the presence of PIP2:3PS lipid substrate (Promega #V1792) and ATP. Following the termination if the kinase reaction, turnover of ATP to ADP by the phosphorylation of the lipid substrate is detected using the Promega ADP-Glo™ (Promega #V1792) assay. Reactions are carried out using the following conditions:
After 120 minutes of reaction time, the kinase reaction is terminated. Any ATP remaining after the reaction is depleted, leaving only ADP. Then the Kinase Detection Reagent is added to convert ADP to ATP, which is used in a coupled luciferin/luciferase reaction. The luminescent output is measured and is correlated with kinase activity.
All reactions are carried out at room temperature. A 3 μl mixture (1:1) of enzyme/lipid substrate solution is added to a 384 well white assay plate (Perkin Elmer #6007299) containing 50 nl of test compound or DMSO only for untreated controls. The reaction is started by the addition of 2 μl ATP/MgCl2. The kinase reaction buffer contains 50 mM HEPES, 50 mM NaCl, 3 mM MgCl2, 0.01% BSA, 1% DMSO, and enzyme and substrate concentrations as indicated in the above table. The reaction is stopped by the addition of 10 μL ADP-Glo reagent. Plates are read in a Perkin Elmer Envision system using luminescence mode. 10 point dose response curves are generated for each test compound. Ki values for each compound are determined using the Morrison Equation.

Chain of PI3Kα (alpha) (P42336 whole entry): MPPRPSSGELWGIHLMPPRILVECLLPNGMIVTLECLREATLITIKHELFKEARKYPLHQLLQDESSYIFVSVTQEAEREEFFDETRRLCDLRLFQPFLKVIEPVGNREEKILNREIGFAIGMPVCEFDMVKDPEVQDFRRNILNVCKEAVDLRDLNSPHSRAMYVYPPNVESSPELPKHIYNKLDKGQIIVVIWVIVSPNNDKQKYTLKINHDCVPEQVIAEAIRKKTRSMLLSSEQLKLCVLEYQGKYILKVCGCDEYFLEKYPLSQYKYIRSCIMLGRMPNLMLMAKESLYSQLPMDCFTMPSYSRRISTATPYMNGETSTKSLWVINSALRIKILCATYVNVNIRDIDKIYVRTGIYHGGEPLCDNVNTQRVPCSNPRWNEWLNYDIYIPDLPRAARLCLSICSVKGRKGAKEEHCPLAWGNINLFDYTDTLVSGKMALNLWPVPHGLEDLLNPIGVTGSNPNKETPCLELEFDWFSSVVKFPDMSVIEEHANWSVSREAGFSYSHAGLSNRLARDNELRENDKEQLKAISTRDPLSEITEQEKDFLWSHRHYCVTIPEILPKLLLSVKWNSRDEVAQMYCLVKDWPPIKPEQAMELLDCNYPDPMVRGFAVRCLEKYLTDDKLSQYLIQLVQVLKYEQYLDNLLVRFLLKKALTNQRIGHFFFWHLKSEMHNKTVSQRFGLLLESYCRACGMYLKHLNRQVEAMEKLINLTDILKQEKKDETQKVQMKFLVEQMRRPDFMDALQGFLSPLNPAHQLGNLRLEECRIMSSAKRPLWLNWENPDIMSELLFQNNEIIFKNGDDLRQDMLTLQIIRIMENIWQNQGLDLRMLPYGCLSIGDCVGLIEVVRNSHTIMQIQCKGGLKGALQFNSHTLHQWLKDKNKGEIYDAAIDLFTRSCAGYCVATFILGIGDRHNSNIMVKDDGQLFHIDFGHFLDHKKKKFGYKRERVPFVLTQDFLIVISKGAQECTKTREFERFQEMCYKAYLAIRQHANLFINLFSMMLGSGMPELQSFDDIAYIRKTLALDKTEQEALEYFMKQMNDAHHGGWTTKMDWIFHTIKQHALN
Chain of PI3Kα (alpha) (P27986 whole entry partner): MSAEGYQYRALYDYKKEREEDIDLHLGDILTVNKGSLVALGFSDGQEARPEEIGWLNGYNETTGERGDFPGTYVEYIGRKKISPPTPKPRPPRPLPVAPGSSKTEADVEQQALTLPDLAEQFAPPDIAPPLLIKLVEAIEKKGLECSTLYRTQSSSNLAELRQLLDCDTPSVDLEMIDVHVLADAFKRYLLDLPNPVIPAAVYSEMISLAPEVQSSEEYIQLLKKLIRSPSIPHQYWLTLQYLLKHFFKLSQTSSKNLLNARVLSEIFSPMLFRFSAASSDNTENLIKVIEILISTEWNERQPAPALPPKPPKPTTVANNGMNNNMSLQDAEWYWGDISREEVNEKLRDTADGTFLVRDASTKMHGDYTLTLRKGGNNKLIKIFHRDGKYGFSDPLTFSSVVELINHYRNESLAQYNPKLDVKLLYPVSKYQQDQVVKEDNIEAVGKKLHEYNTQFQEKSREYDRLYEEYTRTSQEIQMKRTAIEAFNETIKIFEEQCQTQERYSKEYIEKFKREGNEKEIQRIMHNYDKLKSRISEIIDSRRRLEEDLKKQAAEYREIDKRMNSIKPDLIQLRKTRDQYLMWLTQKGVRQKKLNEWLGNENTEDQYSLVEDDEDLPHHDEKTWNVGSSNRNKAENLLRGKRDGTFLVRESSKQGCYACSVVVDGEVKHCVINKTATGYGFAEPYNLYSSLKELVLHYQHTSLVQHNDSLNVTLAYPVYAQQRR

Row | Ki | SMILES
1 | 36.7 nM | NC(=O)[C@@H](Nc1cc2c3c(c1)nc(-c1ccc4c(c1)C(=O)NC4)n3CCCO2)C1CC1 [Example 115, (S)-2-Cyclopropyl-2-((1-(3-oxoisoindolin-5-yl)-8,9-dihydro-7H-6-oxa-2,9a-diazabenzo[cd]azulen-4-yl)amino)acetamide]
2 | 19 nM | NC(=O)[C@@H](Nc1cc2c3c(c1)nc(-c1ccc4cncnc4c1)n3CCCO2)C1CC1 [Example 116, (S)-2-Cyclopropyl-2-((1-(quinazolin-7-yl)-8,9-dihydro-7H-6-oxa-2,9a-diazabenzo [cd]azulen-4-yl)amino) acetamide]
3 | 1.18 nM | NC(=O)[C@@H](Nc1cc2c3c(c1)nc(-c1ccc4nccnc4c1)n3CCCO2)C1CC1 [Example 117, (S)-2-Cyclopropyl-2-((1-(quinoxalin-6-yl)-8,9-dihydro-7H-6-oxa-2,9a-diazabenzo[cd]azulen-4-yl)amino)acetamide]
4 | 561 nM | N#Cc1cccc(-c2nc3cc(N[C@H](C(N)=O)C4CC4)cc4c3n2CCCO4)c1 [Example 118, (S)-2-((1-(3-Cyanophenyl)-8,9-dihydro-7H-6-oxa-2,9a-diazabenzo[cd]azulen-4-yl)amino)-2-cyclopropylacetamide]
5 | 215 nM | NC(=O)[C@@H](Nc1cc2c3c(c1)nc(-c1ccc4ncncc4c1)n3CCCO2)C1CC1 [Example 119, (S)-2-Cyclopropyl-2-((1-(quinazolin-6-yl)-8,9-dihydro-7H-6-oxa-2,9a-diazabenzo[cd]azulen-4-yl)amino)acetamide]
6 | 5.34 nM | NC(=O)[C@@H](Nc1cc2c3c(c1)nc(-c1ccc4nc(N)ncc4c1)n3CCCO2)C1CC1 [Example 120]
7 | 296 nM | Cc1ccncc1-c1nc2cc(N[C@H](C(N)=O)C3CC3)cc3c2n1CCCO3 [Example 122, (S)-2-Cyclopropyl-2-((1-(4-methylpyridin-3-yl)-8,9-dihydro-7H-6-oxa-2,9a-diazabenzo[cd]azulen-4-yl)amino)acetamide]
8 | 45 nM | Cc1cc(-c2nc3cc(N[C@H](C(N)=O)C4CC4)cc4c3n2CCCO4)nc(CO)n1 [Example 123, (S)-2-Cyclopropyl-2-((1-(2-(hydroxymethyl)-6-methylpyrimidin-4-yl)-8,9-dihydro-7H-6-oxa-2,9a-diazabenzo[cd]azulen-4-yl)amino)acetamide]
9 | 0.117 nM | CC(C)(C(N)=O)n1cc(-c2cc3c4c(c2)nc(-c2ccc5oc(N)nc5c2)n4CCCO3)cn1 [Example 124, 2-(4-(1-(2-Aminobenzo[d]oxazol-5-yl)-8,9-dihydro-7H-6-oxa-2,9a-diazabenzo[cd]azulen-4-yl)-1H-pyrazol-1-yl)-2-methylpropanamide]
10 | 221 nM | NC(=O)[C@@H](Nc1cc2c3c(c1)nc(-c1ccnnc1)n3CCCO2)C1CC1 [Example 125, (S)-2-Cyclopropyl-2-((1-(pyridazin-4-yl)-8,9-dihydro-7H-6-oxa-2,9a-diazabenzo [cd]azulen-4-yl)amino)acetamide]
11 | 678 nM | NC(=O)[C@@H](Nc1cc2c3c(c1)nc(N1CCC(CO)CC1)n3CCCO2)C1CC1 [Example 126, (S)-2-Cyclopropyl-2-[1-(4-hydroxymethylpiperidin-1-yl)-8,9-dihydro-7H-6-oxa-2,9a-diazabenzo[cd]azulen-4-ylamino]acetamide]
12 | 719 nM | NC(=O)[C@@H](Nc1cc2c3c(c1)nc(N1CCCCC1)n3CCCO2)C1CC1 [Example 127, (S)-2-Cyclopropyl-2-(1-piperidin-1-yl-8,9-dihydro-7H-6-oxa-2,9a-diazabenzo[cd]azulen-4-ylamino)acetamide]
13 | 73.5 nM | COc1ncc(-c2nc3cc(N[C@H](C(N)=O)C4CC4)cc4c3n2CCCO4)cn1 [Example 128, (S)-2-cyclopropyl-2-((1-(2-methoxypyrimidin-5-yl)-8,9-dihydro-7H-6-oxa-2,9a-diazabenzo[cd]azulen-4-yl)amino)acetamide]
14 | 257 nM | Cn1nc(-c2nc3cc(N[C@H](C(N)=O)C4CC4)cc4c3n2CCCO4)ccc1=O [Example 129, (S)-2-Cyclopropyl-2-((1-(1-methyl-6-oxo-1,6-dihydropyridazin-3-yl)-8,9-dihydro-7H-6-oxa-2,9a-diazabenzo[cd]azulen-4-yl)amino)acetamide]
15 | 7.67 nM | COc1ncc(-c2nc3cc(N[C@H](C(N)=O)C4CC4)cc4c3n2CCCO4)cc1Cl [Example 130, (S)-2-((1-(5-Chloro-6-methoxypyridin-3-yl)-8,9-dihydro-7H-6-oxa-2,9a-diazabenzo[cd]azulen-4-yl)amino)-2-cyclopropylacetamide]
16 | 821 nM | NC(=O)[C@@H](Nc1cc2c3c(c1)nc(-c1ccc4c(c1)NC(=O)CO4)n3CCCO2)C1CC1 [Example 131, (S)-2-Cyclopropyl-2-((1-(3-oxo-3,4-dihydro-2H-benzo[b][1,4]oxazin-6-yl)-8,9-dihydro-7H-6-oxa-2,9a-diazabenzo[cd]azulen-4-yl)amino)acetamide]
17 | 1.6 nM | NC(=O)[C@@H](Nc1cc2c3c(c1)nc(-c1ccn4ncnc4c1)n3CCCO2)C1CC1 [Example 132, (S)-2-((1-([1,2,4]Triazolo[1,5-a]pyridin-7-yl)-8,9-dihydro-7H-6-oxa-2,9a-diazabenzo[cd]azulen-4-yl)amino)-2-cyclopropylacetamide]
18 | 43.4 nM | NC(=O)[C@@H](Nc1cc2c3c(c1)nc(-c1ccc4[nH]ncc4c1)n3CCCO2)C1CC1 [Example 133, (S)-2-((1-(1H-Indazol-5-yl)-8,9-dihydro-7H-6-oxa-2,9a-diazabenzo[cd]azulen-4-yl)amino)-2-cyclopropylacetamide]
19 | 242 nM | NC(=O)[C@@H](Nc1cc2c3c(c1)nc(-c1cncnc1)n3CCCO2)C1CC1 [Example 134, (S)-2-Cyclopropyl-2-((1-(pyrimidin-5-yl)-8,9-dihydro-7H-6-oxa-2,9a-diazabenzo[cd]azulen-4-yl)amino)acetamide]
20 | 0.076 nM | NC(=O)[C@@H](Nc1cc2c3c(c1)nc(-c1ccc4oc(N)nc4c1)n3CCCO2)C1CC1 [Example 135, (S)-2-((1-(2-Aminobenzo[d]oxazol-5-yl)-8,9-dihydro-7H-6-oxa-2,9a-diazabenzo[cd]azulen-4-yl)amino)-2-cyclopropylacetamide]
21 | 76.4 nM | NC(=O)[C@@H](Nc1cc2c3c(c1)nc(-c1cncs1)n3CCCO2)C1CC1 [Example 136, (S)-2-Cyclopropyl-2-((1-(thiazol-5-yl)-8,9-dihydro-7H-6-oxa-2,9a-diazabenzo[cd]azulen-4-yl)amino)acetamide]
22 | 916 nM | CS(=O)(=O)c1ccc(-c2nc3cc(N[C@H](C(N)=O)C4CC4)cc4c3n2CCCO4)cc1 [Example 137, (S)-2-Cyclopropyl-2-((1-(4-(methylsulfonyl)phenyl)-8,9-dihydro-7H-6-oxa-2,9a-diazabenzo[cd]azulen-4-yl)amino)acetamide]
23 | 22.9 nM | NC(=O)[C@@H](Nc1cc2c3c(c1)nc(-c1ccc4c(c1)OCCO4)n3CCCO2)C1CC1 [Example 138, (S)-2-Cyclopropyl-2-((1-(2,3-dihydrobenzo[b][1,4]dioxin-6-yl)-8,9-dihydro-7H-6-oxa-2,9a-diazabenzo[cd]azulen-4-yl)amino)acetamide]
24 | 288 nM | C[C@H](Nc1cc2c3c(c1)nc(N1CCC[C@@H](CO)C1)n3CCCO2)C(N)=O [Example 139, (S)-2-[1-((R)-3-Hydroxymethylpiperidin-1-yl)-8,9-dihydro-7H-6-oxa-2,9a-diazabenzo[cd]azulen-4-ylamino]propionamide]
